Measured values published in the supplement of paper PMC4858399.

Assays:
Conditions in all cases: exposure time 48 h
[1] = test system: Caenorhabditis elegans N2; test: AC50 for larval growth inhibition (Hill fit); higher = less potent
Procedure, shortened: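 After 48 h at 20°C in K-medium with killed OP50, 1% DMSO and 0.5–200 µM chemical, synchronised C. elegans N2 L1 larvae (50 per well, 96-well plates) were sized individually as extinction on a COPAS Biosort. These values were log-transformed and averaged per well, and wells with fewer than 10 worms were excluded. The AC50 was derived from a constrained Hill fit by weighted genetic-algorithm regression, and out-of-range values are censored.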

[2] = test system: Caenorhabditis elegans N2; test: mean nematode size ln(EXT) after 48 h, plate-adjusted (DMSO control set to 6) (ln(EXT), control-adjusted); higher = larger nematodes / less growth inhibition
Procedure, shortened: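 Worms were measured individually for extinction on the Biosort after 48 h at 20°C. They began as synchronised C. elegans N2 L1 larvae in K-medium with killed OP50, 1% DMSO and 0.5–200 µM chemical. Once debris had been removed by a growth model, values were natural-logged and averaged per well to give mean size. The plate adjustment subtracted the vehicle control mean and added 6.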

[3] = test system: Caenorhabditis elegans N2; test: lowest effective concentration for larval growth inhibition (size below effect threshold); higher = less potent
Procedure, shortened: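 L1 larvae of C. elegans N2 (50 per 96-well) were grown in K-medium with killed bacteria and 1% DMSO, with the chemical at 0.5, 1, 5, 10, 50, 100 or 200 µM, for 48 h at 20°C. Per-worm extinction from the Biosort stood for size and was log-transformed into well means. For each chemical, the lowest effective concentration is the first dose where plate-adjusted mean size falls under the threshold and stays under it at the higher doses, using a threshold of 5.665.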

SMILES | AC50 for larval growth inhibition [1] [µM] | mean nematode size ln(EXT) (ln) ([2]; 0.5 µM) | mean nematode size ln(EXT) (ln) ([2]; 1 µM) | mean nematode size ln(EXT) (ln) ([2]; 5 µM) | mean nematode size ln(EXT) (ln) ([2]; 10 µM) | mean nematode size ln(EXT) (ln) ([2]; 50 µM) | mean nematode size ln(EXT) (ln) ([2]; 100 µM) | mean nematode size ln(EXT) (ln) ([2]; 200 µM) | lowest effective concentration [3] [µM]
CCCCCCCCCCO [1-Decanol (Decanol)] | 143 | 5.95 | 5.91 | 5.83 | 5.85 | 5.79 | 5.69 | 3.42 | 200
Cc1cc(CCN2CCN(c3nsc4ccccc34)CC2)cc2c1NC(=O)CC2(C)C | 41.3 | 5.77 | 5.72 | 5.61 | 5.4 | 4.49 | 4.01 | 3.55 | 5
OCC(O)CO [Glycerol] | > 200 | 5.83 | 5.87 | 5.84 | 5.75 | 5.87 | 5.87 | 5.66 | 200
CC(C)Nc1nc(Cl)nc(NC(C)C)n1 [Propazine] | 102 | 5.99 | 6.05 | 6.03 | 6.09 | 6.04 | 5.83 | 5.55 | 200
C#CCC1=C(C)C(OC(=O)C2C(C=C(C)C)C2(C)C)CC1=O (configuration not stated) [Prallethrin] | 188 | 5.85 | 6.08 | 6.07 | 6.04 | 5.94 | 6.04 | 4.41 | 200
ClC1=C(Cl)C2(Cl)C3C4C=CC(C4)C3C1(Cl)C2(Cl)Cl (configuration not stated) [Aldrin] | 3.92 | 5.97 | 5.64 | 4.59 | 3.88 | 3.6 | 3.76 | 3.25 | 1
Clc1cccc(Cl)c1Cl [1,2,3-Trichlorobenzene] | 122 | 6.08 | 6.04 | 6.06 | 6.07 | 6.02 | 5.98 | 3.55 | 200
Oc1cc(Cl)ccc1Oc1ccc(Cl)cc1Cl [Triclosan] | 49.9 | 5.89 | 5.86 | 5.85 | 5.64 | 4.79 | 4.27 | 4 | 10
O=C(CCCN1CCC(O)(c2ccc(Cl)cc2)CC1)c1ccc(F)cc1 [Haloperidol] | 43.3 | 5.95 | 5.85 | 5.93 | 5.66 | 4.99 | 4.71 | 4.44 | 10
CCCCCCCCCCCCCN1CC(C)OC(C)C1 (configuration not stated) [Tridemorph] | 174 | 5.89 | 5.94 | 5.84 | 5.85 | 5.73 | 5.49 | 4.26 | 100
CCNc1nc(Cl)nc(NC(C)(C)C)n1 [Terbuthylazin] | > 200 | 6 | 5.99 | 5.96 | 5.95 | 5.65 | 5.58 | 5.22 | 50
Clc1ccc(C(c2ccccc2Cl)C(Cl)(Cl)Cl)cc1 (configuration not stated) [o,p'-DDT] | 24.1 | 5.7 | 5.89 | 5.78 | 5.19 | 4.4 | 4.09 | 3.85 | 10
C=CCc1cc(S(=O)(=O)c2ccc(O)c(CC=C)c2)ccc1O [4,4'-sulfonylbis[2-(prop-2-en-1-yl)phenol]] | 190 | 5.87 | 5.88 | 5.9 | 5.89 | 5.39 | 5.1 | 4.49 | 50
COc1ccc(O)c(C(C)(C)C)c1 [2-tert-Butyl-4-methoxy-phenol] | > 200 | 5.78 | 5.98 | 5.87 | 5.84 | 5.94 | 5.8 | 5.54 | 200
N#CSCSC#N [Methylene bis(thiocyanate)] | 17.5 | 5.41 | 5.47 | 5.22 | 5.16 | 3.74 | 3.85 | 3.4 | ≤ 0.5
CCCN(CCC)c1c([N+](=O)[O-])cc(C(F)(F)F)cc1[N+](=O)[O-] [Trifluralin] | 53 | 5.85 | 6.06 | 6.05 | 6 | 5.03 | 6.06 | 3.63 | 200
O=C1C2CC=CCC2C(=O)N1SC(Cl)(Cl)Cl (configuration not stated) [Captan] | 85.6 | 5.8 | 5.75 | 5.73 | 5.84 | 5.45 | 4.27 | 3.67 | 50
CCOC(=O)C(C)Oc1ccc(Oc2cnc3cc(Cl)ccc3n2)cc1 (configuration not stated) [Quizalofop-ethyl] | 84.1 | 5.77 | 5.9 | 5.82 | 5.91 | 5.33 | 4.78 | 4.4 | 50
Cc1c(COC(=O)[C@@H]2[C@H](/C=C(\Cl)C(F)(F)F)C2(C)C)cccc1-c1ccccc1 (racemic) [Bifenthrin] | > 200 | 5.92 | 5.85 | 5.84 | 5.96 | 5.9 | 5.78 | 5.37 | 200
CCCN(CCOc1c(Cl)cc(Cl)cc1Cl)C(=O)n1ccnc1 [Prochloraz] | 153 | 6.11 | 6.19 | 6.19 | 6.29 | 5.98 | 5.98 | 3.41 | 200
CCCSP(=O)(OCC)SCCC [Ethoprop] | 76.3 | 5.83 | 5.78 | 5.68 | 5.55 | 4.81 | 4.35 | 4.19 | 10
O=C(O)CN(CC(=O)O)CC(=O)O [Nitrilotriacetic acid] | > 200 | 5.78 | 5.83 | 5.87 | 5.88 | 5.91 | 5.88 | 5.21 | 200
NC(=O)N/N=C/c1ccc([N+](=O)[O-])o1 [5-Nitro-2-furaldehyde semicarbazone] | > 200 | 5.78 | 5.76 | 5.75 | 5.76 | 5.65 | 5.61 | 5.24 | 50
